{
  "source": "patent US20120295935A1",
  "about": "“MIXED AMINAL PHARMACEUTICAL COMPOSITIONS AND USES THEREOF” (priority 2010, published 2012)",
  "key": {"[1]": {"system": "MC3T3 cells", "experiment": "Cell proliferation and death", "type": "cell-based"}, "[2]": {"system": "MC3T3 cells", "experiment": "mRNA expression levels by real-time PCR", "type": "cell-based, mouse", "protocol": "Responses to Administration of Thapsigargin—Upregulation of transcription factors linked to bone formation as well as PERK: The effects of 10 nM thapsigargin on mRNA expression levels of ISR-linked genes (ATF4, ATF3, and CHOP) as well as genes involved in bone remodeling (Runx2, Osterix, and Rank1), were examined (FIG. 5). […] Out of 4 transcription factors (ATF4, ATF3, Runx2, and Osterix), the level of ATF4 mRNA was elevated 2-4 fold throughout the treatments. […] The mRNA level of type 1 collagen was elevated 5 h and 10 h for T1h (1 h exposure at 10 nM).\nResponses to Administration of Salubrinal—In vitro responses to salubrinal: In order to evaluate the effects of salubrinal, MC3T3 E1 osteoblast-like cells and MLO-A5 osteocyte cells (Barragan-Adjemian, C., et al., “Mechanism by which MLO-A5 late osteoblasts/early osteocytes mineralize in culture: similarities with mineralization of lamellar bone,” Calcif. Tissue Int. 79:340-353 (2006)) were incubated with salubrinal at 100 nM-50 μM for 1-24 h. The mRNA levels of the selected genes, TF4, ATF3, Osteocalcin (OCN), and CHOP, were determined by real-time PCR. […] In MC3T3 cells, for instance, the Osteocalcin mRNA level, which is regulated by ATF4 and Runx2 (Xiao et al. 2005), was elevated 11.8±0.2 fold at 10 μM salubrinal in 24 h."}, "[3]": {"system": "MC3T3 cells", "experiment": "Mineralization, von-Kossa staining", "type": "cell-based, mouse", "details": "10 days", "protocol": "To evaluate the effects of salubrinal on mineralization, MC3T3 cells were grown in the presence of 50 μg/ml of ascorbic acid and 5 mM β-glycerophosphate for 10 days with and without 10 or 50 μM salubrinal, and von-Kossa staining was conducted. Cells were fixed in 10% formalin and incubated in 5% silver nitrate for 30 min. After rinsing in PBS, staining was developed in 5% sodium carbonate for 2 min. They were counterstained with 0.1% nuclear fast red solution. […] In the field-of-view with 10× objective lens, the mean number of positive dots was 3.2-fold (10 μM salubrinal) and 2.9-fold (50 μM salubrinal) more than that for control cells without salubrinal treatment (FIG. 9)."}, "[4]": {"system": "eIF2α-p (phosphorylated form of eukaryotic initiation factor 2—subunit α)", "experiment": "Western analysis of eIF2α-p in response to salubrinal", "type": "cell-based, mouse", "details": "10 μM or 50 μM, 1 to 5 h and 1 to 2 days", "from_the_text": "MS3T3 osteoblast-like cells were used to evaluate the level of eIF2α-p (phosphorylated form of eukaryotic initiation factor 2—subunit α) in response to salubrinal."}, "[5]": {"system": "female SD rats", "experiment": "Rat tibia healing of surgical wounds (micro CT)", "type": "in vivo", "details": "for cortical thickness / cortical thickness elevated vs control: tibia", "from_the_text": "Rat tibia-healing of surgical wounds. Twenty female SD rats (˜8 weeks, body weight ˜180 g) received a surgical hole with ˜2.0 mm in diameter in the left and right tibiae (Zhang P., et al., Knee loading accelerates bone healing in mice, J. Bone Miner. Res. 22:1979-1987 (2007)). The hole was located on the medial surface ˜15 mm distant apart from the proximal end of the tibia (Chiba S., et al., Molecular analysis of defect healing in rat diaphyseal bone, J. Vet. Med. Sci. 63:603-606 (2001)). During the first 5 days, 100 μl of salubrinal solution at dosage of 0.025 mg/kg was injected into the left limb and a PBS solution (vehicle control) in the right limb (Wang J W, et al., Locally applied simvastatin promotes fracture healing in ovariectomized rat, Osteoporosis Int. 18:1641-1650 (2007)). Injection was subcutaneous targeted to the wound site. Rats were sacrificed on days 10 or 20 after surgery, and the axial and transverse length of the holes as well as cortical thickness (1.5 mm proximal and distal to the center of the hole) were determined with micro CT imaging (μCT-20, Scanco Medical AG)."}, "[6]": {"system": "female SD rats", "experiment": "Rat femur healing of surgical wounds (micro CT)", "type": "in vivo", "parameters": "wound size decreased vs control / reduction in wound size / cortical thickness increased vs control: concentration or dose not given beside the values", "details": "for cortical thickness / cortical thickness increased vs control: femur anterior hole; for cortical thickness increase: femur posterior hole; for reduction in wound size: femur posterior holes", "protocol": "Rat femur—healing of surgical wounds. A surgical hole with ˜2.0 mm in diameter was generated in the left and right femurs of twenty female SD rats (˜8 weeks, body weight ˜180 g). The holes were drilled through the femur from the anterior surface to the opposite cortex (posterior surface) in the middle of the femur. During the first 5 days, 100 μl of salubrinal solution at dosage of 0.025 mg/kg was injected subcutaneously to the left limb and a PBS solution (vehicle control) in the right limb. The injection site was closed to the anterior surgical hole. Rats were sacrificed on days 10 or 20 after surgery, and the axial and transverse hole sizes as well as cortical thickness (1.5 mm proximal and distal to the center of the hole) were determined with micro CT. […] Regarding the anterior holes, the size of the wounds 10 days after surgery was smaller in the salubrinal treated group by 10.8% (1.905±0.018 mm in control and 1.700±0.021 mm in salubrinal; p<0.001). The size in 20 day samples was further decreased by 18.0% (1.812±0.017 mm in control and 1.486±0.026 mm in salubrinal; p<0.001). […] Note that the reduction in the wound size on day 20 was more significant than those on day 10 in both the anterior and posterior holes (both p<0.001) (FIG. 15B)."}, "[7]": {"system": "rat pheochromocytoma cell line", "details": "cited from earlier work"}, "[8]": {"system": "rat brain", "details": "intra-cerebroventricular or intra-peritoneal administration; cited from earlier work"}, "[9]": {"system": "brainstem motoneurons in mice", "details": "hypoxia and reoxygenation events; cited from earlier work"}, "[10]": {"system": "mouse hippocampus", "details": "direct injection; cited from earlier work"}},
  "data": [
    {"smiles": "O=C(/C=C/c1ccccc1)NC(NC(=S)Nc1cccc2cccnc12)C(Cl)(Cl)Cl", "note": "(stereo not shown) [salubrinal]", "values": [
      {"measurement": "cell death", "setting": "[1]; 50 μM, no statistical difference (p>0.05)", "result": "reduced cell death"},
      {"measurement": "cell proliferation or death", "setting": "[1]; 10 or 50 μM for 24 h", "result": "did not alter"},
      {"measurement": "Osteocalcin mRNA level", "setting": "[2]; 10 μM in 24 h", "result": "11.8±0.2", "unit": "fold"},
      {"measurement": "mRNA levels of the selected genes (TF4, ATF3, Osteocalcin, CHOP)", "setting": "[2]; MC3T3 cells, 100 nM-50 μM for 1-24 h", "result": "upregulated"},
      {"measurement": "mean number of von-Kossa positive dots vs control cells", "setting": "[3]; 10 μM", "result": 3.2, "unit": "fold"},
      {"measurement": "mean number of von-Kossa positive dots vs control cells", "setting": "[3]; 50 μM", "result": 2.9, "unit": "fold"},
      {"measurement": "phosphorylated level of eIF2α", "setting": "[4]", "result": "Elevated"},
      {"measurement": "size of the wounds", "setting": "[5]; tibia medial cortex, day 10", "result": "1.614±0.014", "unit": "mm"},
      {"measurement": "wound size smaller vs control", "setting": "[5]; tibia medial cortex, day 10, 0.025 mg/kg s.c. first 5 days", "result": 12.3, "unit": "%"},
      {"measurement": "size of the wounds", "setting": "[5]; tibia medial cortex, day 20", "result": "1.375±0.033", "unit": "mm"},
      {"measurement": "wound size decreased vs control", "setting": "[5]; tibia medial cortex, day 20", "result": 19.1, "unit": "%"},
      {"measurement": "cortical thickness", "setting": "[5]; day 10", "result": "0.434±0.006", "unit": "mm"},
      {"measurement": "cortical thickness elevated vs control", "setting": "[5]; day 10", "result": 11.6, "unit": "%"},
      {"measurement": "cortical thickness", "setting": "[5]; day 20", "result": "0.537±0.005", "unit": "mm"},
      {"measurement": "cortical thickness elevated vs control", "setting": "[5]; day 20", "result": 20.3, "unit": "%"},
      {"measurement": "cortical thickness", "setting": "[6]; day 10", "result": "0.476±0.012", "unit": "mm"},
      {"measurement": "cortical thickness increased vs control", "setting": "[6]; day 10", "result": 11.0, "unit": "%"},
      {"measurement": "cortical thickness", "setting": "[6]; day 20", "result": "0.551±0.014", "unit": "mm"},
      {"measurement": "cortical thickness increased vs control", "setting": "[6]; day 20", "result": 25.7, "unit": "%"},
      {"measurement": "size of the wounds", "setting": "[6]; femur anterior holes, 10 days", "result": "1.700±0.021", "unit": "mm"},
      {"measurement": "wound size smaller vs control", "setting": "[6]; femur anterior holes, 10 days, 0.025 mg/kg s.c. first 5 days", "result": 10.8, "unit": "%"},
      {"measurement": "size of the wounds", "setting": "[6]; femur anterior holes, 20 days", "result": "1.486±0.026", "unit": "mm"},
      {"measurement": "wound size decreased vs control", "setting": "[6]; femur anterior holes, 20 days", "result": 18.0, "unit": "%"},
      {"measurement": "cortical thickness increase", "setting": "[6]; postoperative 10 days", "result": 13.8, "unit": "%"},
      {"measurement": "cortical thickness increase", "setting": "[6]; postoperative 20 days", "result": 21.3, "unit": "%"},
      {"measurement": "reduction in wound size", "setting": "[6]; postoperative 10 days", "result": 4.1, "unit": "%"},
      {"measurement": "reduction in wound size", "setting": "[6]; postoperative 20 days", "result": 11.1, "unit": "%"},
      {"measurement": "protection from ER stress-induced apoptosis", "setting": "[7]", "result": "protect"},
      {"measurement": "excitotoxic neuronal death in vivo", "setting": "[8]", "result": "decreased"},
      {"measurement": "motoneuronal injury", "setting": "[9]", "result": "suppressed"},
      {"measurement": "ATF4-dependent long-term synaptic plasticity and memory", "setting": "[10]", "result": "modulated"}
    ]}
  ]
}
